# Tests used:
# [1] = system: CLL16 chronic lymphocytic leukemia cells; details: read-out: IC50 (CLL16); primary patient cells, 24 h
# Text: (§2) For chronic lymphocytic leukemia, mononuclear cells were isolated from peripheral blood using a Ficoll gradient (GE Healthcare). Primary cells from other lymphoma entities were isolated as previously described [80]. All cells were cryopreserved after isolation and thawed as previously described [81].
# (§3) The resazurin reduction assay, which is also known as AlamarBlue® assay, was used for the determination of cell viability in all cytotoxicity determinations shown in the present work, as previously described [22]. Briefly, cells were seeded at a specific density depending on the incubation time (24 h: 1 × 10^6 cells/ml) in a 96-well plate and incubated with increasing compound concentrations (0.01–30 µM). After the specified treatment time, resazurin (Sigma, #R7017) was added to a final concentration of 40 µM. […] The viability of control cells was set to 100% and all other values were normalized to the control condition, the dose-response curves were then fitted with Prism v7.01 (GraphPad software, La Jolla, CA, USA). The reduction of resazurin to resorufin is proportional to aerobic respiration; therefore, it is used as a measure for the cell viability and cytotoxicity of a tested compound.
# [2] = system: DLBCL177 diffuse large B cell lymphoma cells; details: read-out: IC50 (DLBCL177); primary patient cells, 24 h
# Text: as §2
# The resazurin reduction assay, which is also known as AlamarBlue® assay, was used for the determination of cell viability in all cytotoxicity determinations shown in the present work, as previously described [22]. Briefly, cells were seeded at a specific density depending on the incubation time (24 h: 1 × 10^6 cells/ml) in a 96-well plate and incubated with increasing compound concentrations (0.01–30 µM). After the specified treatment time, resazurin (Sigma, #R7017) was added to a final concentration of 40 µM. […] The viability of control cells was set to 100% and all other values were normalized to the control condition, the dose-response curves were then fitted with Prism v7.01 (GraphPad software, La Jolla, CA, USA).
# [3] = system: K562; details: read-out: IC50 (K562); cytotoxicity, 24 h
# Procedure: as §3
# [4] = biological target: T1, ALK (Homo sapiens, UniProt Q9UM73); experiment: kinome screen (33PanQinase); format: biochemical
# T1 construct: purchased Reaction Biology Europe GmbH (formerly ProQinase)
# Procedure: (§1) The Kinome Screening was performed by Reaction Biology Europe GmbH (http://reactionbiology.com; Freiburg i. Br., Germany).
# [5] = biological target: T2, CK1ε (Homo sapiens, UniProt P49674); experiment: kinome screen (33PanQinase); format: biochemical
# T2 construct: purchased Reaction Biology Europe GmbH (formerly ProQinase)
# Procedure: as §1
# [6] = biological target: T3, MYLK3 (Homo sapiens, UniProt Q32MK0); experiment: kinome screen (33PanQinase); format: biochemical
# T3 construct: purchased Reaction Biology Europe GmbH (formerly ProQinase)
# T3 sequence (Q32MK0 1-819): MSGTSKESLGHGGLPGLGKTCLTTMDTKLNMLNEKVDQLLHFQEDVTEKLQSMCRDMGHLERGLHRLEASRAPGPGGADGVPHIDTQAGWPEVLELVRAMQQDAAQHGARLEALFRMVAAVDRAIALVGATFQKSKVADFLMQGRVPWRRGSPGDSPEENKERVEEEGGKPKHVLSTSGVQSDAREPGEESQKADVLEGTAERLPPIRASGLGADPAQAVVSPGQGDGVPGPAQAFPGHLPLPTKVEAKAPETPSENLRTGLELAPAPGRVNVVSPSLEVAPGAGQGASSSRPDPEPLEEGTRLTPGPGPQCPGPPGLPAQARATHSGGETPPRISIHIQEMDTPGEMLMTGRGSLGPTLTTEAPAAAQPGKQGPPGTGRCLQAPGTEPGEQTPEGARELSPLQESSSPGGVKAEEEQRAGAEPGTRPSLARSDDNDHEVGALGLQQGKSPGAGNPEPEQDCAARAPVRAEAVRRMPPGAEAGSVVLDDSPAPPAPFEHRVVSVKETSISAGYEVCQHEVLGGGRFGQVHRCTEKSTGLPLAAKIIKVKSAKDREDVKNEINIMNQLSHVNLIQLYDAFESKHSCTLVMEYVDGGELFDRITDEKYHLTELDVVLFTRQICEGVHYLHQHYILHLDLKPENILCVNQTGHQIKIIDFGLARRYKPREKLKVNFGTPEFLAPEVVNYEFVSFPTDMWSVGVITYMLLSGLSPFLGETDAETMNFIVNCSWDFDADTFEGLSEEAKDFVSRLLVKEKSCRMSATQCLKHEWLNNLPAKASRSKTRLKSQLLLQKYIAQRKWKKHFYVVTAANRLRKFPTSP
# Procedure: as §1
# [7] = system: RNA polymerase II phosphorylation at Ser2; experiment: immunoblotting of p-Ser2 RNA polymerase II in Ramos cells; format: cell-based, human; details: 0.1 and 1 µM (R547 1 µM), 4-24 h
# Procedure: Cells were seeded at a density of 2 × 10^6 cells, treated as specified and harvested by centrifugation at 3000 rpm for 5 min, followed by freezing in liquid nitrogen. The cell pellets were thawed on ice and quick-frozen and defrozen in liquid nitrogen for three times, then lysed on ice in lysis buffer (20 mM Tris-HCl, 150 mM NaCl, 1% v/v Triton X-100, 0.5 mM EDTA, 10 mM NaF, 2.5 mM Na4P2O7, protease inhibitor (Sigma, #P2714)) for 30 min, accompanied by vortexing. Subsequently, centrifugation 13,300 rpm for 15 min purified cell lysates from cell debris. The supernatant was transferred to a new tube and the protein concentration was determined by Bradford assay. The samples were diluted with sample buffer. SDS-Page and Western Blot were conducted in accordance with standard workflows. […] The antibody baths were stored at 4 °C and re-used.
# The density of the individual protein band was determined using Image Studio^TM Lite Version 5.2. The density of each protein was divided by the average of all bands of this protein. The ratios of the protein of interest were normalized to the ratio of the respective loading control. To determine the fold change, each normalized ratio was divided by the normalized band of the control line (untreated cells). Fold change is 1 for the control line, n ≥ 2. The results are shown as mean ± standard deviation and were visualized with GraphPad Prism 7.
# [8] = system: 335 wild-type protein kinases; experiment: kinome screen, selectivity score; format: biochemical
# Procedure: The Kinome Screening was performed by Reaction Biology Europe GmbH (http://reactionbiology.com; Freiburg i. Br., Germany). […] A kinase inhibition profile of the three meriolins was determined by measuring residual activity at two concentrations each in single values in 335 wild-type protein kinase assays.
# The selectivity score was calculated as: SelectivityScore=Countofdatapoints<50%/(Totalnumberofdatapoints)
# [9] = system: HL60; details: read-out: IC50 (HL60); cytotoxicity, 24 h
# Procedure: as §3
# [10] = system: SUPB15; details: read-out: IC50 (SUPB15); cytotoxicity, 24 h
# Procedure: as §3
# [11] = system: Jurkat; details: read-out: IC50 (Jurkat); cytotoxicity, 24 h
# Procedure: as §3
# T2 sequence (P49674 whole entry): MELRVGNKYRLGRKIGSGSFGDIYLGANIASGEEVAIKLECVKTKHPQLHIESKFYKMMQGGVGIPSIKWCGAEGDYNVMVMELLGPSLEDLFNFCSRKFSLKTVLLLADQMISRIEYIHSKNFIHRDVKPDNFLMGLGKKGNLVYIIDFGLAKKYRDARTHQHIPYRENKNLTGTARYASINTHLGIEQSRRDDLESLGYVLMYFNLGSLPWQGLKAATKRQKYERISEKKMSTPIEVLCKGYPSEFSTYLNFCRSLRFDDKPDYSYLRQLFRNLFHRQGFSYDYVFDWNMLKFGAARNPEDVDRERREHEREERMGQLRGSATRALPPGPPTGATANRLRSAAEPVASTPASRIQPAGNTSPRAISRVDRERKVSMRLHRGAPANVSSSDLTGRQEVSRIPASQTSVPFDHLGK
# T1 sequence (Q9UM73 19-1620): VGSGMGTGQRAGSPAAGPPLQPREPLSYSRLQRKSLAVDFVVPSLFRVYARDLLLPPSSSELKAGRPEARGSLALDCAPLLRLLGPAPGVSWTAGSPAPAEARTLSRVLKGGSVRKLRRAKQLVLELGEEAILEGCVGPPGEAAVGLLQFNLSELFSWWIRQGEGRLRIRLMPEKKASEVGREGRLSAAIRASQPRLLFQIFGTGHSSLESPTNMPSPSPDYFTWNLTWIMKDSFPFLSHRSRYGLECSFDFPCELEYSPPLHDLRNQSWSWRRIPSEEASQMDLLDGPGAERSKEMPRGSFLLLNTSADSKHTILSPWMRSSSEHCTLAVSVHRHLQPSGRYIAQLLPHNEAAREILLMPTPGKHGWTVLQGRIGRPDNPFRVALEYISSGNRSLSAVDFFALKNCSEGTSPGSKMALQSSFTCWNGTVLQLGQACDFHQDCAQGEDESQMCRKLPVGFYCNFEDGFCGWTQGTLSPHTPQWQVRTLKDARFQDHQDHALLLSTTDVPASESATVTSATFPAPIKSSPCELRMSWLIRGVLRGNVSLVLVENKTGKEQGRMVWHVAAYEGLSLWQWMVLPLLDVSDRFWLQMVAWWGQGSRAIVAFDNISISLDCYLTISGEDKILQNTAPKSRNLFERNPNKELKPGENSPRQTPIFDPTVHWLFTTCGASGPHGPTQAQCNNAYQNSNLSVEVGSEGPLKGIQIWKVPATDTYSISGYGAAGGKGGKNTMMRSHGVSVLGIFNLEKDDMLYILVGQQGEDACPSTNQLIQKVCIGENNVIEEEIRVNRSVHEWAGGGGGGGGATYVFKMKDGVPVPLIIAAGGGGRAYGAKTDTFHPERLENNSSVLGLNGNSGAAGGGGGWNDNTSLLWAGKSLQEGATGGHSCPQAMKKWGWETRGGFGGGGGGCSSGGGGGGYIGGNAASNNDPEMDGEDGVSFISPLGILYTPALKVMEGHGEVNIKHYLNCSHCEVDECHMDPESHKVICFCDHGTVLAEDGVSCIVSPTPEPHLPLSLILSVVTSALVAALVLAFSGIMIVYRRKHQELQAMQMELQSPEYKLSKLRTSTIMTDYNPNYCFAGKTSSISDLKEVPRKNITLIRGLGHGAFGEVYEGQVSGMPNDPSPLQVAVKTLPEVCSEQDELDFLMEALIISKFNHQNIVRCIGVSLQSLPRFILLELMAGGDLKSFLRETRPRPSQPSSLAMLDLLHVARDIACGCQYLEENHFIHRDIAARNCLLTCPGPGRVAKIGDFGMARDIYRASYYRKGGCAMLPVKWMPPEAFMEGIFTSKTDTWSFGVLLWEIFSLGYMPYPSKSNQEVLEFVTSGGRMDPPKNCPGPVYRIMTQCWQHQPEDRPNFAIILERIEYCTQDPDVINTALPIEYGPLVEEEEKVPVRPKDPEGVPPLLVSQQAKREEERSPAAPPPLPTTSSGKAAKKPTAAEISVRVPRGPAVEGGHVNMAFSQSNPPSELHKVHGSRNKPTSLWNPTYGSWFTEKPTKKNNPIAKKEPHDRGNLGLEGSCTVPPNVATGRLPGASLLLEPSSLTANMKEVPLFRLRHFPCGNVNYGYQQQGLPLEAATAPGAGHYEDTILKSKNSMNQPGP
SMILES,IC50 [1] [nM],IC50 [2] [nM],IC50 [3] [nM],residual kinase activity ([4]; 0.03 µM),residual kinase activity ([4]; 0.3 µM),residual kinase activity ([5]; 0.03 µM),residual kinase activity ([5]; 0.3 µM),residual kinase activity ([6]; 0.03 µM),residual kinase activity ([6]; 0.3 µM),phosphorylation of RNA polymerase II at Ser2 [7],Selectivity Score (< 50% residual activity) ([8]; 0.03 µM),Selectivity Score (< 50% residual activity) ([8]; 0.3 µM),IC50 [9] [nM],IC50 [10] [nM],IC50 [11] [nM],residual kinase activity ([4]; 3 µM),residual kinase activity ([5]; 3 µM),residual kinase activity ([6]; 3 µM),Selectivity Score (< 50% residual activity) ([8]; 3 µM)
COc1ccnc2[nH]cc(-c3cc(N)nc(N)c3)c12 [meriolin 16],60,80,40,104 % of control,77 % of control,112 % of control,41 % of control,119 % of control,77 % of control,total loss of the phosphorylation at Ser2 within 4 h,0.140,0.284,10,20,30,,,,
c1ccc(CNc2cc(-c3c[nH]c4ncccc34)ccn2)cc1 [meriolin 36],200,50,940,,60 % of control,,86 % of control,,71 % of control,less pronounced,,0.397,1230,1650,1430,14 % of control,23 % of control,21 % of control,0.752

# From publication PMC11167047 (Cell Death Discovery, 2024)
